Target: T1, CK2α (Homo sapiens, UniProt P68400)
T1 construct: gene CSNK2A1; human recombinant CK2α; rhCK2αΔC(1-335)
T1 sequence (P68400 1-335): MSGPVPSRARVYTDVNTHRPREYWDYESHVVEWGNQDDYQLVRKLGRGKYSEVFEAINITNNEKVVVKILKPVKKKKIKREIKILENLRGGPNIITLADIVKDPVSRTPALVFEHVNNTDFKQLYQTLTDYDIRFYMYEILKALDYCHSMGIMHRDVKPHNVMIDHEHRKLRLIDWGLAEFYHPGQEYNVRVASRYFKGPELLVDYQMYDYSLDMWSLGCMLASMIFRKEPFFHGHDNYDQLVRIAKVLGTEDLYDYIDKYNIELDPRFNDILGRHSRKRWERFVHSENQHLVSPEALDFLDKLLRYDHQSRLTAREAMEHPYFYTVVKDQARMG
Test: radiometric kinase assay dose-response, Lineweaver-Burk kinetics, mutant panel
Type: biochemical

O=[N+]([O-])c1ccc2c(N=Nc3ccc4ccccc4c3O)c(O)cc(S(=O)(=O)O)c2c1 [compound 4, Eriochrome Black T]
IC50: ~400 nM

Source: PMC3282105, “Antitumoral activity of allosteric inhibitors of protein kinase CK2” (2011)
